Experiment [1] concerns c-kit (KIT D816V mutation and V560G mutation). The experiment can be described thus: FACS of cell surface c-kit, HMC-1.2 mast cells. It counts as cell-based, human. The note with it: HMC-1.2 (mutated c-kit), 10 μM, 18-hour treatment; DMSO 113. The text has this: (§1) Mast cells cause symptoms or diseases such as allergic reaction by receptor-mediated activation. In addition, c-kit signal transduction enhances release of chemical mediators from stimulated mast cells. The effect of the RUNX inhibitor on human mast cells was examined. As human mast cells, a LAD2 cell line (expressing wild-type c-kit) and an HMC-1.2 cell line (expressing mutated c-kit) were used. The HMC-1.2 cell line has KIT D816V mutation and V560G mutation. Wild-type c-kit is a SCF receptor and the cell proliferation is dependent on SCF. Accordingly, regarding the LAD2 cell line, 50 ng/ml of SCF was administered and experiments were performed as described below. The HMC-1.2 cell line has a mutation in c-kit and the cell proliferation is independent of SCF. Accordingly, regarding the HMC-1.2 cell line, SCF was not administered and experiments were performed as described below. As the RUNX inhibitor, Chb-M′ was used. […]
(§2) To the LAD2 cell line, 10 μM Chb-M′ was administered. After 3 hours and 18 hours, different antibodies were used for immunostaining of c-kit expressed on the cell surface, and the expression levels were analyzed by FACS (fluorescence-activated cell sorter). […] After 18 hours, different antibodies were used for immunostaining of c-kit expressed on the cell surface, and the expression levels were analyzed by FACS. […]

In another experiment the test system is HMC-1.2 cell line. The experiment can be described thus: Cell proliferation of HMC-1.2 mast cells. It counts as cell-based, human.
The test system of a further experiment is Mig6. The experiment can be described thus: Western blotting of Mig6 in lung adenocarcinoma cells. The settings on record: 1 μM, 24 hours. Type of experiment: cell-based, human. As for the experimental part:
Cells were washed twice with ice cold phosphate-buffered saline (PBS) and harvested in protein lysis buffer [50 mM Tris (pH 7.4), 100 mM NaCl, 0.1 mM EDTA, 1 mM phenylmethylsulfonyl fluoride, 1 mM β-glycerophosphate, 2.5 mM sodium pyrophosphate, 1 mM Na3VO4, lx protease inhibitor (Roche) and PhosSTOP (Roche)]. Whole cell extracts were separated by SDS-polyacrylamide gel electrophoresis (SDS-PAGE) and electrotransferred onto polyvinylidene difluoride membranes. […] Blots were detected using Chemi-Lumi One Super (nacalai tesque, Inc.) and ChemiDoc™ XRS+ Imager (Bio-Rad Laboratories, Inc.), as recommended by the manufacturers. Protein levels were quantified with Image Lab Software (Bio-Rad Laboratories, Inc.).
To LU99A cells and A549 cells, 1 μM Chb-M′ was administered. After 24 hours, the expression of Mig6 protein was evaluated by the Western blotting method (see the above-described “Immunoblotting”). […]

In a further experiment the test system is c-kit. Kind of experiment: FACS of cell surface c-kit, LAD2 mast cells. It counts as cell-based, human. The note with it: LAD2 (wild-type c-kit), 10 μM, 18-hour treatment; DMSO 68.3.
From the text: as §1, §2

The test system of a further experiment is LU99A. The experiment can be described thus: Cell viability, lung adenocarcinoma LU99A. It counts as cell-based, human. The settings on record: LU99A (EGFR wild-type p53 wild-type), 48 hours.
In another experiment the test system is SOS1. The experiment can be described thus: qRT-PCR of SOS1 in MKN45 gastric cancer cells. The settings on record: MKN45, 1 μM, 6 hours. It counts as cell-based, human. As for the experimental part: A total RNA was isolated with RNeasy mini kit (Qiagen) and reverse transcribed with Reverse script kit (TOYOBO) to generate cDNA. Real-time quantitative polymerase chain reaction (PCR) was carried out with 7500 Real-Time PCR System (Applied Biosystems) according to the manufacturer's instructions. Results were normalized to GAPDH levels. Relative expression levels were calculated using the 2-ΔΔCt method.
To the MKN45 gastric cancer cell line, 1 μM of Chb-M′ was administered. After 6 hours, the mRNA level of SOS1 was evaluated by RT-PCR method using qRT-PCR (see the above-described “Real-time quantitative PCR (qRT-PCR)”). As a control, DMSO was administered. In the figure, the mRNA expression level of SOS1 is shown as a value relative to that in the DMSO-treated group.
On the technique in general: Quantitative PCR measures a nucleic acid by following its amplification.

The test system of the next experiment is Kasumi-1. The note with it: Kasumi-1, p53mut(+); for IC50: 48 hours.
In a further experiment the test system is ABC-1. Kind of experiment: Cell viability, lung adenocarcinoma ABC-1. It counts as cell-based, human. The note with it: ABC-1 (EGFR wild-type p53-mutated), 48 hours.

SMILES strings stand for the structures. Where two headings read alike, the source gives them in different places. Where only a bound is given, the exact number is not on record here.

The values below come from patent US11235001B2, “RUNX inhibitor” (KYOTO UNIVERSITY, priority 2016, dated 2022).

`CN(C)CCCNC(=O)c1cc(NC(=O)c2cc(NC(=O)c3cc(NC(=O)c4cc(NC(=O)CCCNC(=O)c5nc(NC(=O)c6nc(NC(=O)c7cc(NC(=O)c8nc(NC(=O)CCNC(=O)CCCc9ccc(N(CCCl)CCCl)cc9)cn8C)cn7C)cn6C)cn5C)cn4C)cn3C)cn2C)cn1C` [Chb-M′]: the “MFI (mean fluorescent intensity) of surface c-kit” value in experiment [1] worked out at 100; in the experiment with c-kit, 48.8. Besides, in the experiment on HMC-1.2 cell line, the “Cell proliferation of mast cells having mutated c-kit” value was “suppression”. For the same compound, the “Expression level of Mig6 protein” value with Mig6 (A549 cells) and in the experiment with Mig6 (LU99A cells) was “enhanced” each time. The “IC50 compared with the EGFR inhibitor (gefitinib)” value in the experiment with LU99A and in the experiment on ABC-1 was “lower IC50 values” each time. The “Expression of SOS1 (mRNA)” value in the experiment on SOS1 is recorded as “suppressed”. Besides, the IC50 in the experiment on UF1 (p53Null) (culture time 48 hours) was 1750 nM; with UF1 (p53Null) (culture time 72 hours) it was 674 nM; with Kasumi-1 (read-out: IC50 (μM) of Chb-M′ in concomitant use with PRIMA-1 (5 μM), with 5 μM PRIMA-1) it was 0.359 µM; with Kasumi-1 (read-out: IC50 (μM) of Chb-M′ single agent administration), above 100 µM. Moreover, the “CI (Fa = 0.5)” value in the experiment on Kasumi-1 (concomitant use of Chb-M′ and PRIMA-1, Chou-Talalay, CI<1 synergism) came out at 0.156.
